Source: patent publication US4191763A
Where two headings read alike, the source gives them in different places.

Assays:
Pseudomonas solanacearum = assay type: in vivo, tomato plants; details: scale 0 (no control) to 4 (complete control)
[1] = system: Ascaris lumbricoides var. suum; assay: anthelmintic activity in mice infected with Ascaris, medicated feed; assay type: in vivo; details: Example 13, 0.05 percent in diet; control 2.66
Description: The feeds were utilized as diets for separate groups of mice, five mice per group. About twelve hours after initiation of the feeding, the mice were infected with Ascaris lumbricoides var. summ ova. Another group of five mice was fed the non-medicated feed to serve as a control but was similarly infected at the same time with Ascaris lumbricoides var. suum. All groups were fed their respective feed and maintained under normal laboratory conditions for a period of eight days, at which time all mice were taken off feed. On the ninth day, all mice were sacrificed and the lungs examined to determine the presence, and if present, numbers, of lesions of Ascaris lumbricoides var. suum.
Another evaluation was conducted under the procedures reported in Example 11, except that the rates were varied. The results were as follows:
In a further evaluation, the monoammonium salts of A16886I and A16886II were separately evaluated for the control of Ascaris lumbricoides var. suum. The evaluations were conducted in accordance with the procedure reported in Example 11 at a concentration in the diet of 0.05 percent.

Xanthomonas vesicatoria = assay: field trial, control of bacterial spot on tomato plants; assay type: in vivo
Description: (§1) A mixture of the monoammonium salt of A16886I and the monoammonium salt of A16886II was tested under field conditions for the control of Xanthomonas vesicatoria (bacterial spot) on mature bearing tomato plants. The mixture of the two salts was dispersed in water at a concentration of 100, 200, or 400 parts per million and applied to the plants at the rate of 75 gallons per acre. Application was made with a CO2 sprayer at 50 psi. Plants were sprayed twice, on successive days; after the second spray had dried, all plants were wounded by sand blasting and then within one minute the plants were inoculated with a bacterial inoculum of Xanthomonas vesicatoria. Three days later, a third spray application of the aqueous formulation of A16886 was made. Readings were made one week and two weeks after the last spray treatment. Controls consisted of groups of plants (1) sand blasted and inoculated; (2) sand blasted only; (3) untreated; and (4) treated with streptomycin (on the same three-day spraying schedule, at a concentration of 100, 200, or 400 parts per million of aqueous solution, using a rate of 75 gallons per acre), sand blasted, and inoculated. The results were as set forth in the following table, in which crop injury is reported on a scale of 0-10, with 0=no injury and 10=dead plants; and control of bacterial spot is reported on a percentage basis.

tomato plants = assay: field trial, crop injury; assay type: in vivo; details: scale 0 (no injury) to 10 (dead plants)
Description: as §1

[2] = First Reading, 100 parts/million
[3] = First Reading, 200 parts/million
[4] = First Reading, 400 parts/million
[5] = Second Reading, 100 parts/million
[6] = Second Reading, 200 parts/million
[7] = Second Reading, 400 parts/million

| Structure (SMILES) | Disease Rating (Pseudomonas solanacearum; Example 7, 10 ppm.) | Disease Rating (Pseudomonas solanacearum; Example 7, 100 ppm.) | rating (Pseudomonas solanacearum; Example 8, 100 ppm.) | rating (Pseudomonas solanacearum; Example 8, 200 ppm.) | rating (Pseudomonas solanacearum; Example 8, 400 ppm.) | Average Number of Lung Lesions Per Group [1] | Percent Bacterial Spot Control (Xanthomonas vesicatoria; [2]) [%] | Percent Bacterial Spot Control (Xanthomonas vesicatoria; [3]) [%] | Percent Bacterial Spot Control (Xanthomonas vesicatoria; [4]) [%] | Percent Bacterial Spot Control (Xanthomonas vesicatoria; [5]) [%] | Percent Bacterial Spot Control (Xanthomonas vesicatoria; [6]) [%] | Percent Bacterial Spot Control (Xanthomonas vesicatoria; [7]) [%] | Crop Injury Ratings (tomato plants; [2]) | Crop Injury Ratings (tomato plants; [3]) | Crop Injury Ratings (tomato plants; [4]) | Crop Injury Ratings (tomato plants; [5]) | Crop Injury Ratings (tomato plants; [6]) | Crop Injury Ratings (tomato plants; [7]) |
| --- | --- | --- | --- | --- | --- | --- | --- | --- | --- | --- | --- | --- | --- | --- | --- | --- | --- | --- |
| COC1(NC(=O)CCCC(N)C(=O)O)C(=O)N2C(C(=O)O)=C(COC(N)=O)CS[C@@H]21 (stereo partly drawn) [7-(5-amino-5-carboxyvaleramido)-3-(carbamoyloxymethyl)-7-methoxy-3-cephem-4-carboxylic acid] | 2 | 4 | 4 | 4 | 4 | 0.46 | – | – | – | – | – | – | – | – | – | – | – | – |
| [H]/N=C(/N)N[C@H]1[C@H](O)[C@@H](O)[C@H](O[C@@H]2O[C@@H](C)[C@](O)(C=O)[C@H]2O[C@@H]2O[C@@H](CO)[C@H](O)[C@@H](O)[C@@H]2NC)[C@@H](N/C(N)=N\[H])[C@@H]1O [Streptomycin] | – | – | – | – | – | – | 83 | 81 | 83 | 57 | 37 | 59 | 0 | 0 | 0 | 0 | 0 | 0 |
| NC(=O)OCC1=C(C(=O)O)N2C(=O)C(NC(=O)CCCC(N)C(=O)O)[C@H]2SC1 (stereo partly drawn) [7-(5-amino-5-carboxyvaleramido)-3-(carbamoyloxymethyl)-3-cephem-4-carboxylic acid] | 1 | 4 | – | – | – | 0.20 | – | – | – | – | – | – | – | – | – | – | – | – |
